{
  "source": "patent US20230233480A1",
  "about": "“TRANSDERMAL THERAPEUTIC SYSTEM FOR THE TRANSDERMAL ADMINISTRATION OF FINGOLIMOD” (LTS LOHMANN THERAPIE-SYSTEME AG, priority 2019, published 2023)",
  "origin": "cited, not measured here",
  "data": [
    {"smiles": "CCCCCCCCc1ccc(CCC(N)(CO)CO)cc1", "note": "[fingolimod, 2-amino-2-[2-(4-octylphenyl)ethyl]propane-1,3-diol]", "values": [
      {"measurement": "ratio of Cmax fingolimod phosphate/Cmax fingolimod", "setting": "humans at steady state after administration of 0.5 mg/day", "value": "about 0.5"},
      {"measurement": "accumulation of blood levels from first dose to steady state", "setting": "humans, once-daily dosing", "value": "~11", "unit": "fold"}
    ]}
  ]
}
